Test results published in ChEMBL document CHEMBL1130897, “Novel inhibitors of bacterial two-component systems with gram positive antibacterial activity: pharmacophore identification based on the screening hit closantel” (Bioorg Med Chem Lett, 1998).
Converted amounts (≈) assume the structure as drawn.

How the values were obtained:
[1] = molecular target: T1, KinA/Spo0F (sporulation kinase A/sporulation initiation phosphotransferase F) (Bacillus subtilis (strain 168), UniProt P06628+P16497); test: Inhibition of histidine protein kinase (KinA) phosphorylation in the presence of response regulator (Spo0F); assay type: protein assay
T1 sequence (P06628 whole entry): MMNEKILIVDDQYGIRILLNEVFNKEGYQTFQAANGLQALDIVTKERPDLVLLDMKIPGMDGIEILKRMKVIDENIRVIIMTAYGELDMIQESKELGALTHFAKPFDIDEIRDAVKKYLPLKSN
T1 sequence (P16497 whole entry): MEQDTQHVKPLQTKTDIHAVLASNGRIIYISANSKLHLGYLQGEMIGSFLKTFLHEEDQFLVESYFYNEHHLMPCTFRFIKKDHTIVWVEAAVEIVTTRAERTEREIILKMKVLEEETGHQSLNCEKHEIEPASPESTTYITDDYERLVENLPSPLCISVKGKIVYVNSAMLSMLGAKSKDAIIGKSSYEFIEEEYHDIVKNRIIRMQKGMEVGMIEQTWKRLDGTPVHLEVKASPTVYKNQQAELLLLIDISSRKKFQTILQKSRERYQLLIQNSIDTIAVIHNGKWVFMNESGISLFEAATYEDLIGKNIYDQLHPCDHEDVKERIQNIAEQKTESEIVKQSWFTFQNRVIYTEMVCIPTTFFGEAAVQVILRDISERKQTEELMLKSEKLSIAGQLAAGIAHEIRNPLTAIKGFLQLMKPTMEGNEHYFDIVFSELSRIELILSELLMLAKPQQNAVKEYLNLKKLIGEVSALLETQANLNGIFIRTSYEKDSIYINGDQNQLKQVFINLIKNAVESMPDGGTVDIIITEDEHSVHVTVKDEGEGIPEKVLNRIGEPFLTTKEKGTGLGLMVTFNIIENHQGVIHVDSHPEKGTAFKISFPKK

[2] = tested on: Enterococcus faecium; test: Compound was tested for its antibacterial activity against Enterococcus faecium (Vancomycin resistant, VRE) OC 3312.; assay type: functional
[3] = tested on: Enterococcus faecalis; test: Compound was tested for its antibacterial activity against Enterococcus faecalis OC 3041.; assay type: functional
[4] = tested on: Staphylococcus aureus; test: Compound was tested for its antibacterial activity against MRSA (methicillin resistant) OC 2089.; assay type: functional
[5] = tested on: Staphylococcus aureus; test: Compound was tested for its antibacterial activity against Staph aureus ATCC 29213.; assay type: functional
[6] = Partition coefficient (logP); assay type: physicochemical; settings: octanol/water

SMILES | IC50 [1] [µM] | MIC [2] [µg/mL] | other results
O=C(Nc1ccc(Cl)c(Cl)c1)c1cc(Cl)cc(Cl)c1 | > 500 | – | –
Oc1c(Cl)cc(Cl)cc1/C=C/c1ccc(Cl)c(Cl)c1 | > 500 | – | –
O=C(Nc1ccccc1)c1cc(Cl)cc(Cl)c1O | 385 | – | –
O=C(NCc1ccc(Cl)c(Cl)c1)c1cc(Cl)cc(Cl)c1O | > 500 | – | –
Cc1cc(NC(=O)c2cc(Cl)cc(Cl)c2O)c(Cl)cc1C(C#N)c1ccc(Cl)cc1 (stereo unspecified) | 4.8 | – | –
O=C(Nc1ccc(Cl)c(Cl)c1)c1cc(Cl)c(O)c(Cl)c1 | 98 | 64 (≈ 182 µM) | MIC [3]: 64 µg/mL (≈ 182 µM); MIC [4]: 16 µg/mL (≈ 45.6 µM); MIC [5]: 16 µg/mL (≈ 45.6 µM)
Cc1cc(N(C)C(=O)c2cc(I)cc(I)c2O)c(Cl)cc1C(C#N)c1ccc(Cl)cc1 (stereo unspecified) | > 500 | – | –
O=C(Nc1ccc(Cl)c(Cl)c1)c1cc(I)cc(I)c1O | 22 | – | –
Cc1cc(NC(=O)c2cc(I)c(O)c(I)c2)c(Cl)cc1C(C#N)c1ccc(Cl)cc1 (stereo unspecified) | 9 | – | –
O=C(Nc1ccc(Cl)c(Cl)c1)Nc1cc(Cl)cc(Cl)c1O | 365 | – | –
O=C(Nc1cc(Cl)cc(Cl)c1O)c1ccc(Cl)c(Cl)c1 | > 500 | 1 (≈ 2.85 µM) | MIC [3]: 2 µg/mL (≈ 5.7 µM); MIC [4]: 0.25 µg/mL (≈ 0.712 µM); MIC [5]: 0.5 µg/mL (≈ 1.42 µM)
COc1c(I)cc(I)cc1C(=O)Nc1cc(C)c(C(C#N)c2ccc(Cl)cc2)cc1Cl (stereo unspecified) | > 500 | – | –
O=C(Nc1ccc(Cl)c(Cl)c1)c1cc(Cl)cc(Cl)c1O [3,3',4',5-TETRACHLOROSALICYLANILIDE] | 45 | 0.5 (≈ 1.42 µM) | logP [6]: 4.8; MIC [3]: 0.5 µg/mL (≈ 1.42 µM); MIC [4]: 0.25 µg/mL (≈ 0.712 µM); MIC [5]: 0.5 µg/mL (≈ 1.42 µM)
Cc1onc(-c2ccccc2)c1C(=O)N[C@@H]1C(=O)N2[C@@H]1SC(C)(C)[C@@H]2C(=O)O [OXACILLIN] | – | > 64 | MIC [3]: 16 µg/mL (≈ 39.9 µM); MIC [4]: > 64 µg/mL; MIC [5]: 0.25 µg/mL (≈ 0.623 µM)
CN[C@H](CC(C)C)C(=O)N[C@H]1C(=O)N[C@@H](CC(N)=O)C(=O)N[C@H]2C(=O)N[C@H]3C(=O)N[C@H](C(=O)N[C@H](C(=O)O)c4cc(O)cc(O)c4-c4cc3ccc4O)[C@H](O)c3ccc(c(Cl)c3)Oc3cc2cc(c3O[C@@H]2O[C@H](CO)[C@@H](O)[C@H](O)[C@H]2O[C@H]2C[C@](C)(N)[C@H](O)[C@H](C)O2)Oc2ccc(cc2Cl)[C@H]1O [VANCOMYCIN] | – | > 128 | –
